Here are results for 4 molecules from patent publication US20240390455A1, “METHODS AND COMPOSITIONS FOR TREATING CANCERS AND OTHER PROLIFERATIVE DISORDERS” (ARIZONA BOARD OF REGENTS ON BEHALF OF THE UNIVERSITY OF …, priority 2022, published 2024).

For one assay, the system named is Akt. The experiment in a line: Akt phosphorylation in naive HPASMC treated with media from apoptotic cells (Western blot). Format: cell-based, human. Conditions: apoptotic conditioned media, 24 h, L-690,330 at 500 μM, FIG. 9C. The method, then:
Western blot and immunoprecipitation: For an analysis of the total lung proteins, lung tissues were lysed. According to the manufacturer's protocol, the membrane proteins were isolated using Mem-PER Plus Membrane Protein Extraction Kit (ThermoFisher Scientific, Rockford, IL). Briefly, 20-40 mg of lung tissue was quickly washed in Cell WashSolution to remove any blood components, transferred to permeabilization buffer mixed with protease and phosphatase inhibitor cocktails, homogenized using Fisher Homogenizer 850 for 1 minute, and shaken in UltraCruz Shaker at 0° C. for 10 minutes. The homogenate was centrifuged at 16,000 g for 15 minutes to pellet permeabilized cells. The supernatant containing cytosolic proteins was carefully transferred to a separate tube. […] The reactive bands were visualized using a chemiluminescent protocol, recorded with the ChemiDoc MP Imaging System (Bio-RadLaboratories, Hercules, CA), and analyzed using Image Laboratory software. […]
Cell culture: Human pulmonary artery endothelial cells (HPAEC; cat. no. 3100, lot no. 3904) and human pulmonary artery smooth muscle cells (HPASMC; cat. no. 3110, lot no. 0294) were purchased from ScienCell (Carlsbad, CA), one donor for each cell type. […] The level of apoptosis was quantified using Apoptosis and Necrosis Quantification Kit (Biotum, Fremont, CA) according to the manufacturer's protocol. […]

A further assay deals with SU/Hx rats. The experiment in a line: SU/Hx rat model of pulmonary arterial hypertension: RV pressure and RV hypertrophy. The class given is in vivo. Conditions: 5 μg/kg i.p. daily for 1 wk. The method, then:
(§1) Rat models of pulmonary hypertension: Thirty-two Sprague-Dawley female rats (200-250 g) were purchased from Charles River (Wilmington, MA). Animals were kept in a 12-h:12-h light-dark cycle and received standard rodent food and water ad libitum. All experimental procedures were approved by the University of Arizona's Institutional Animal Care and Use Committee. To induce PAH, rats received either the vehicle or a single dose of the VEGF receptor 2 antagonist SU5416, 50 mg/kg sc, as previously described. On the day of injection, the PAH rats were placed in a hypoxic chamber (BioSpherix, Redfield, NJ), and the oxygen was maintained at the level of 10±0.5%. The O2 and CO2 concentrations were continuously monitored (PROOX 110 BioSpherix oxygen controller and LB-2 CO2 analyzer; Sensormedics).
The animals were analyzed after 1 or 2 weeks of exposure to hypoxia or after 5 weeks (i.e., 3 weeks of hypoxia and 2 weeks of normoxia). The control rats were kept under normoxic conditions for the duration of the study (5 weeks). At the end of each study period, animals were anesthetized ([…], 100 mg/kg ip) and instrumented for measurement of right ventricle (RV) hemodynamics. Briefly, a PE-240 polyethylene tube was inserted into the trachea to facilitate breathing. […]

In another assay the target is T1, RAGE/IMPA1 (Rattus norvegicus, UniProt P97697).
T1 construct: from tissue; host or cells: lung of Sprague-Dawley rats (SU5416/hypoxia PAH model)
T1 sequence (P97697 1-277): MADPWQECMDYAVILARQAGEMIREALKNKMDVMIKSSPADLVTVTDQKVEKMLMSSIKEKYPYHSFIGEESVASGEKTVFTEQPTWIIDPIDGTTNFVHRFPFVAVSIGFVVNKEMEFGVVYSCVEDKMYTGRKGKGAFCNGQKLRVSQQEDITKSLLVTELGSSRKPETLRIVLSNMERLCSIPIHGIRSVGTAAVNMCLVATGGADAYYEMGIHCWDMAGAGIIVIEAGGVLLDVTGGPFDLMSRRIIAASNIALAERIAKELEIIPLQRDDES
The assay can be described thus: RAGE/IMPA1 co-immunoprecipitation in lungs of SU/Hx rats after peptide injection. Conditions: 5 μg/kg i.p. daily for 1 wk, FIG. 11B. Format: in vivo. The method, then: as §1
For immunoprecipitation (IP), RAGE antibodies conjugated to agarose beads were used according to the manufacturer's (Santa Cruz Biotechnology) protocol. Lung tissue lysate (300 μg of total protein) was rotated at room temperature with 20 μl of bead solution for 2 hours. Beads were collected by brief centrifugation (30 seconds at 1,000 g), washed four times with lysis buffer and PBS, resuspended with 30 μl of 2× Laemmli sample buffer, and boiled for 5 minutes at 95° C. The supernatant collected by centrifugation was used for Western Blot analysis as described.

Assay [1] has as its system PAEC isolated from Control subjects. The experiment in a line: Growth of PAEC isolated from Control subjects (healthy cells). The class given is cell-based, human. The conditions noted are these: 3.3 mg/ml, FIG. 11F.
Assay [2] deals with PAEC isolated from IPAH patients. The experiment in a line: Proliferation of PAEC isolated from IPAH patients. Format: cell-based, human. The conditions noted are these: 3.3 mg/ml, FIG. 11E.
The subject of another assay is HeLa cells. The assay can be described thus: Proliferation of HeLa cells (human cancer cells). The conditions noted are these: FIG. 11G. The class given is cell-based.
Assay [3] deals with T2, receptor for advanced glycation endproducts (RAGE), rat, endogenous in lung tissue (rat, UniProt Q63495 23-402).
T2 construct: Endogenous rat protein, pulled down from lung lysate with RAGE antibody on agarose beads or detected in situ by PLA; No construct limits apply; also called full-size RAGE
T2 sequence (Q63495 23-402 limits assumed): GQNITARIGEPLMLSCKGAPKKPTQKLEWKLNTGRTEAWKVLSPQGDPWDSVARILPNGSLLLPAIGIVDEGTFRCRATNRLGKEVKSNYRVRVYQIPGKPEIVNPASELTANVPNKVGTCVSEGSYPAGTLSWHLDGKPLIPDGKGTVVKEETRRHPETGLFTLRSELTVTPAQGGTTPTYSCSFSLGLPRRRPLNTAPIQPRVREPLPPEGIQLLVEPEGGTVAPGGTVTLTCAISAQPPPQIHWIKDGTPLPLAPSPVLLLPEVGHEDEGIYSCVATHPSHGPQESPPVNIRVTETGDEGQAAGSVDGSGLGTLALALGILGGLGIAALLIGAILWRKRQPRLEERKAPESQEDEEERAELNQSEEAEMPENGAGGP
The assay can be described thus: RAGE co-IP from PAH rat lung, mass spectrometry, immunoblot time course and PLA. From the text: FIGS. 4A, 4B, and 4C show a receptor for advanced glycation endproducts (RAGE) interacting with inositol monophosphatase 1 (IMPA1) in pulmonary arterial hypertension (PAH). Mass spectrometry analysis of proteins co-immunoprecipitated (co-IP) with RAGE from lungs identified IMPA1 as a novel RAGE interacting partner. The RAGE-IMPA1 complex was discovered in both samples from PAH animals (week 5) but not in control (peptide probability […]; 4 peptides with P>89%). […] There was no interaction between RAGE and IMPA1 in controls from week 1 RAGE/IMPA1 were efficiently co-IP (n=4 for all groups). Results are expressed as box and whisker plots (boxes: 25th to 75th percentile of the data; whiskers: minimum to maximum; the line represents the median value). *P<0.05 vs. control. Statistical analysis was performed by Newman-Keuls multiple-comparisons test. […] Images are representative of 6 pulmonary arteries/at n=4 rats/group. Gray images were taken using light microscopy (×20) to visualize the tissue structure. The square represents the area of magnification (×100). The white marker corresponds to 25 μm. […] The dotted line is traced following the external lamina of the vessel. The arrowheads point to the endothelial cells with no PLA signal; white arrows point to the cells in the pulmonary artery media and adventitia cells with a bright PLA signal. IB, immunoblot. […]
Background: Immunoblotting shows a protein as a band on a membrane.

In the case of `CC(Oc1ccc(O)cc1)(P(=O)(O)O)P(=O)(O)O` [L-690,330], the Akt phosphorylation entry with Akt was “significantly attenuated”.

Regarding ILWQRRQRRG [SEQ ID NO: 1], the “RVSP (right ventricle systolic pressure)” value with SU/Hx rats (FIG. 11C) was “reduces RVSP”. In addition, the RV hypertrophy result in the assay on SU/Hx rats (FIG. 11D) is listed as “reduces”. Further, the “RAGE/IMPA1 co-IP” value with RAGE/IMPA1 is recorded as “inhibits RAGE/IMPA1 co-IP”.

For the molecule “anti-RAGE/IMPA1 peptide: peptide designed based on the sequence of cytosolic tails of RAGE predicted to interact with IMPA1; probably SEQ ID NO: 1 (ILWQRRQRRG)”, the “growth of PAEC isolated from Control subjects” value in assay [1] is “does not affect the growth”. For the same molecule, the “proliferative phenotype of PAEC isolated from IPAH patients” value in assay [2] was “reverses the highly proliferative phenotype”. Moreover, the “proliferative phenotype of HeLa cells” value in the assay with HeLa cells is on record as “reverses the proliferative phenotype”.

B1: inositol monophosphatase 1 (IMPA1), rat, endogenous in lung tissue (enzyme, UniProt P97697 1-277, looked up)
chain: T1 sequence (P97697 1-277)
notes: Endogenous rat protein co-immunoprecipitated with RAGE
With B1, the binding result in assay [3] is listed as “binds”.
